Measurements reported in PMC11206691, “N-Hydroxypiridinedione: A Privileged Heterocycle for Targeting the HBV RNase H” (Molecules, 2024).
Read-outs that look alike come from different tables or passages of the source.

Assays:
HBV replication [1] = settings: Figures 1 and 2, earlier inhibitors; cited from earlier work
HepDES19 cells [2] = system: HepDES19 cells; set-up: method as in PMID 28450058, PMID 28633989, PMID 29565562, PMID 30768944; settings: Figures 1 and 2, earlier inhibitors; cited from earlier work
MTS cytotoxicity assay = type: cell-based; settings: human, HepDES19 cells
Protocol: (§1) HepDES19 cells were incubated on collagen-coated plates at 37 °C with 5% CO2 and saturating humidity in Dulbecco’s modified Eagle’s medium (DMEM/F12) (Cytiva Life Sciences, Marlborough, MA, USA) supplemented with 10% fetal bovine serum (FBS), penicillin (100 IU/mL), and streptomycin (100 µg/mL). HepDES19 cells are HepG2 cells that carry a stably transfected HBV genotype D genome under the control of a tetracycline repressible promoter. Cells were maintained in the presence of 1 µg/mL tetracycline to repress the expression of the stably integrated HBV genome, and HBV replication was induced by the withdrawal of tetracycline from the culture medium.
(§2) Cell viability was assessed using the CellTiter 96^TM Aqueous Non-Radioactive Cell Proliferation assay (MTS) (Promega, Madison, WI, USA) as described previously. HepDES19 cells were seeded at 1 × 10^4 cells per well in 96-well, and compound was added after 48 h. Cells incubated with serially diluted compound (1% DMSO) for 72 h. Bac absorbance values were subtracted, and data were converted to percent cell viability. The cytotoxic concentration 50% (CC50) values were calculated with GraphPad Prism by using the four-parameter variable response log (inhibitor) versus response algorithm with the bottom value set to zero. Three or more replicate assays were performed on different days.

HBV replication [3] = assay: qPCR HBV replication inhibition assay in HepDES19 cells; type: cell-based, Hepatitis B virus (HBV) genotype D; settings: Hepatitis B virus, 72 h, (+) DNA qPCR, read-out: EC50
Protocol: as §1
HBV replication inhibition was measured in HepDES19 cells induced to replicate HBV by the removal of tetracycline using a strand-preferential quantitative PCR assay as previously described. Cells were seeded at 4 × 10^4 cells/well in 96-well plates for 48 h. Serially diluted compound was then added to cells at a final concentration of 1% DMSO for 72 h, after which the cells were lysed and qPCR was performed as described in Li et al.. EC50 values were calculated from the (+) DNA data with GraphPad Prism using the four-parameter log (inhibitor) versus response algorithm with the bottom value set to zero. Three or more replicate assays were performed on different days.

[4] = Solubility limit assay (turbidity, DMEM-F12 + 10% FBS); type: physicochemical; settings: DMEM-F12 without phenol red with 10% FBS, plasma or biological fluid, kinetic from dmso stock; pH 7.4, DMEM-F12 with 10% FBS, 1% DMSO, upper limit 200 µM
Protocol: Compound solubility limits were tested in DMEM-F12 without phenol red (Gibco, Grand Island, NY, USA) supplemented with 10% FBS (pH 7.2–7.4) to mimic cell culture experiments, as we have performed previously. Compounds were serially diluted in buffer at pH 7.4 in 384-well, optically clear plates (upper limit 200 µM, DMSO 1%) and read on a plate reader at 620 nm. Compound concentration (µM) was plotted against optical density (OD) and a solubility limit was determined by identifying an inflection point where there was a significant increase in optical density due to increasing turbidity; the concentration of the compound at the inflection point was defined as the solubility limit. Two or more replicate assays were performed on different days for each compound.

[5] = Parallel artificial membrane permeability assay; type: in vitro ADME; settings: PAMPA; for Papp interpretation (high/low permeability category) at 2 h, 200 µM: pH 7.4, pH 7.4; for Papp at 2 h, 200 µM: pH 7.4, pH 7.4, 200 μM, room temperature
Protocol: Apparent passive permeability (Papp) was assessed at pH 7.4 using a 96-well donor/acceptor cassette (Sigma Aldrich, Burlington, MA, USA), which mimics the apical and basolateral sides of the small intestine epithelium, as we have described previously. Briefly, an artificial membrane composed of 1% w/v lethicin/dodecane was added to the poly (vinylidene fluoride) (PVDF) membrane filter. Once dry, compounds (200 μM) were diluted in buffer at pH 7.4 and added to the donor side of the membrane, and the same pH buffer was added to the acceptor side. The cassette was assembled and incubated at room temperature with shaking at 250 rpm for 2 h, after which 100 μL of the acceptor well was retrieved and the experimental compound absorbance was read on a plate reader between 200 and 600 nm. Compound Papps (cm/s) values were determined by normalizing to the compound absorbance at equilibrium, incubation time, and membrane porosity Two or more replicate assays were conducted on different days.

HepDES19 cells [6] = assay: MTS cytotoxicity assay; type: cell-based; settings: 72 h
Protocol: as §1, §2

Structure (SMILES) | EC50 (HBV replication [1]) [µM] | CC50 (HepDES19 cells [2]) [µM] | CC50 at 72 h (MTS cytotoxicity assay) [µM] | EC50 (HBV replication [3]) [µM] | melting point | solubility [4] [µM] | Papp interpretation (high/low permeability category) at 2 h, 200 µM [5] [×10⁻⁶ cm/s] | Papp at 2 h, 200 µM [5] [×10⁻⁶ cm/s] | CC50 (HepDES19 cells [6])
COc1ccc(CON=C(C)c2c(C)cc(=O)n(O)c2O)cc1 [A24] | 0.29 | 102 | – | – | – | – | – | – | –
CC(=NOC(C)c1ccccc1)c1c(C)cc(=O)n(O)c1O (stereo not drawn) [Compound 46, 1,6-Dihydroxy-4-methyl-5-(1-((1-phenylethoxy)imino)ethyl)pyridin-2(1H)-one] | – | – | 100 | 3.1 ± 0.5 | 130 to 132 °C | > 200 | > 1 | 3.19 | –
COC(=O)c1ccc(CON=C(C)c2c(C)cc(=O)n(O)c2O)cc1 [Compound 47, 4′-((((1′-(1,2-Dihydroxy-4-methyl-6-oxo-1,6-dihydropyridin-5-yl)ethylidene)amino)oxy)methyl)methyl benzoate] | – | – | 100 | 1.1 ± 0.4 | 120 °C (dec.) | > 200 | > 1 | 5.52 | minimally cytotoxic
CC(=NOCc1ccc([N+](=O)[O-])cc1)c1c(C)cc(=O)n(O)c1O [Compound 48, 1,6-Dihydroxy-4-methyl-5-(1-(((4-nitrobenzyl)oxy)imino)ethyl)pyridin-2(1H)-one] | – | – | 99.6 ± 0.6 | 1.1 ± 0.2 | 105 to 107 °C | > 200 | > 1 | 5.38 | minimally cytotoxic
CC(=NOC(CNC(=O)c1ccc2ccccc2n1)c1cc(F)cc(F)c1)c1c(C)cc(=O)n(O)c1O (stereo not drawn) [Compound 49, N-(2-(3,5-Difluorophenyl)-2-(((1-(1,2-dihydroxy-4-methyl-6-oxo-1,6-dihydropyridin-3-yl)ethylidene)amino)oxy)ethyl)quinoline-2-carboxamide] | – | – | 99.9 ± 0.2 | 3.5 ± 0.8 | 108 to 110 °C (dec.) | > 200 | > 1 | 6.71 | –
CC(=NOC(CNC(=O)c1nccs1)c1cc(F)cc(F)c1)c1c(C)cc(=O)n(O)c1O (stereo not drawn) [Compound 50, N-(2-(3,5-Difluorophenyl)-2-(((1-(1,2-dihydroxy-4-methyl-6-oxo-1,6-dihydropyridin-3-yl)ethylidene)amino)oxy)ethyl)thiazole-2-carboxamide] | – | – | 100 | 4 ± 1.5 | 117 to 119 °C (dec.) | > 200 | > 1 | 4.67 | –
O=C(Nc1ccc2c(c1)C(=O)N(O)C(=O)C2C(=O)NCc1ccc(F)cc1)c1ccccc1 (stereo not drawn) [HID] | 1.4 | 99 | – | – | – | – | – | – | –
NCc1ccc(-c2ccc(Cc3cc(=O)n(O)c4ncccc34)cc2)cc1 [HNO] | 3.4 | 7.1 | – | – | – | – | – | – | –
C/C(=N\c1cccc(Br)c1)c1c(C)cc(=O)n(O)c1O [HPD imine] | 1.1 | 62.3 | – | – | – | – | – | – | –
COC(=O)c1c2c(cc(O)c(=O)c1O)COC2=O [a-HT] | 0.5 | > 77 | – | – | – | – | – | – | –
